From patent publication US6916802B2, “Amino ceramide-like compounds and therapeutic methods of use” (Genzyme Corporation, priority 2002, dated 2005) come the findings set out here.

The subject of test [1] is GlcCer synthase of MDCK cell homogenates. In words: Inhibition of ceramide glucosyltransferase (GlcCer synthase) of MDCK cell homogenates. The format is biochemical, canine. The conditions noted are these: for Inhibition at 5 μM: 5 μM inhibitor; for Inhibition at 5 μM / % Inhibition at 80 μM: triplicate ± SD, samples partly isomer mixtures; for % Inhibition at 80 μM: 80 μM inhibitor; for inhibition of GlcCer synthase by nonionic ceramide-like compounds: 20 μM. As for the experimental part: Assay of sphingolipid enzymes. The inhibitors were evaluated for their effectiveness against the GlcCer synthase of MDCK cell homogenates by incubation in a thermostatted ultrasonic bath (Radin N. S. et al., “Ultrasonic Baths as Substitutes for Shaking Incubator Baths,” Enzyme, 45:67-70 (1991)) with octanoyl sphingosine and uridinediphospho[^3H]glucose (Shukla, G. S. et al., “Glucosylceramide Synthase of Mouse Kidney: Further Characterization and Improved Assay Method,” Arch. Biochem. Biophys., 283:372-378 (1990)). The lipoidal substrate (85 μg) was added in liposomes made from 0.57 mg dioleoylphosphatidylcholine and 0.1 mg of Na sulfatide. Confluent cells were washed, then homogenized with a micro-tip sonicator at 0° C. for 3×30 sec; ˜0.2 mg of protein was used in each assay tube. In the case of the aromatic inhibitors, the test compound was simply evaporated to dryness from solution in the incubation tube. […] The aliphatic inhibitors, which appeared to be less soluble in water, were added as part of the substrate liposomes.

Test [2] relates to 9L brain gliosarcoma cells. Kind of test: Tumor cell growth in vitro (sulforhodamine B), 9L. The format is cell-based. The conditions noted are these: for effectiveness on growth and survival of 9L cells, in words: FIG. 1. The protocol:
Growth of cell lines. Comparisons of different inhibitors with regard to suppression of human cancer cell growth were made by the University of Michigan Cancer Center in vitro Drug Evaluation Core Laboratory. MCF-7 breast carcinoma cells, HT-29 colon adenocarcinoma cells, H-460 lung large cell carcinoma cells, and 9L brain gliosarcoma cells were grown in RPMI 1640 medium with 5% fetal bovine serum, 2 mM glutamine, 50 units/ml of penicillin, […] of streptomycin, and 0.1 mg/ml of neomycin. UMSCC-10A head and neck squamous carcinoma cells were grown in minimal essential medium with Earle salts and the same supplements. Medium components were from Sigma Chemical Co. Cells were plated in 96-well microtiter plates (1000 cells/well for H-460 and 9L cells, and 2000 cells/well for the other lines), and the test compounds were added 1 day later. The stock inhibitor solutions, 2 mM in 2 mM BSA, were diluted with different amounts of additional 2 mM BSA, then each solution was diluted 500-fold with growth medium to obtain the final concentrations indicated in the Figures and Tables.
Five days after plating the H-460 and 9L cells, or 6 days for the other lines, cell growth was evaluated by staining the adhering cells with sulforhodamine B and measuring the absorbance at 520 nm (Skehan, P. et al., “New Colorimetric Cytotoxicity Assay for Anticancer-Drug Screening,” J. Natl. Cancer Inst., 82:1107-1112 (1990)). The absorbance of the treated cultures is reported as percent of that of control cultures, to provide an estimate of the fraction of the cells that survived, or of inhibition of growth rate.

In test [3] the test system is Neutral sphingomyelinase (SMase). Kind of test: Neutral sphingomyelinase of MDCK cells. The format is biochemical, canine. The protocol: Acid and neutral SMase assays were based on the procedures of Gatt et al. (Gatt, S. et al., “Assay of Enzymes of Lipid Metabolism With Colored and Fluorescent Derivatives of Natural Lipids,” Meth. Enzymol., 72:351-375 (1981)), using liposomes containing NBD-SM dispersed like the labeled ceramide (10 μM substrate and 30 μM lecithin). […] Incubation was at 37° C. for 30 min in the ultrasonic bath, then the fluorescent product, NBD-ceramide, was isolated by partitioning the assay mixture with 0.45 ml 2-propanol, 1.5 ml heptane, and 0.2 ml water. After centrifugation, a trace of contaminating NBD-SM was removed from 0.9 ml of the upper layer by washing with 0.35 ml water. The upper layer was analyzed with a fluorometer (460 nm excitation, 515 nm emission).

Another test deals with Acid SMase. Kind of test: Acid sphingomyelinase of MDCK cells. The format is biochemical, canine. The protocol: Acid and neutral SMase assays were based on the procedures of Gatt et al. (Gatt, S. et al., “Assay of Enzymes of Lipid Metabolism With Colored and Fluorescent Derivatives of Natural Lipids,” Meth. Enzymol., 72:351-375 (1981)), using liposomes containing NBD-SM dispersed like the labeled ceramide (10 μM substrate and 30 μM lecithin). The assay medium for the neutral enzyme also contained 50 mM Tris-Cl^− (pH 7.4), 25 mM KCl, 5 mM MgCl2 and 0.29 mg of MDCK cell protein in a total volume of 0.25 ml. Incubation was at 37° C. for 30 min in the ultrasonic bath, then the fluorescent product, NBD-ceramide, was isolated by partitioning the assay mixture with 0.45 ml 2-propanol, 1.5 ml heptane, and 0.2 ml water. After centrifugation, a trace of contaminating NBD-SM was removed from 0.9 ml of the upper layer by washing with 0.35 ml water. The upper layer was analyzed with a fluorometer (460 nm excitation, 515 nm emission).
[…] The resultant ceramide was determined as above.

For a further test, the system named is acid ceramidase. Kind of test: Acid ceramidase of MDCK cell homogenate. The format is biochemical, canine. The protocol:
(§1) Acid and neutral ceramidases were assayed under conditions like those above, but the medium contained 110 μM [1-^14C]decanoyl sphingosine (10^5 cpm) in 340 μM dioleoylphosphatidylcholine liposomes and 0.34 mg of MDCK cellular protein homogenate. […] After 60 min in the ultrasonic bath, 3 ml of C-M 2:1, carrier decanoic acid, and 0.6 ml of 0.9% saline were added and the lipids in the lower layer were separated by TLC with C-HOAc 9:1. The liberated decanoic acid was scraped off the glass plate and counted.

For another test, the system named is Ceramide synthase. Kind of test: Ceramide synthase of MDCK homogenate. The class given is biochemical, canine. As for the experimental part:
Ceramide synthase was assayed with 1 μM [3-^3H]sphingosine (70,000 cpm, repurified by column chromatography), 0.2 mM stearoyl-CoA, 0.5 mM dithiothreitol, and ˜300 μg of MDCK homogenate protein in 25 mM phosphate-K^+ buffer, pH 7.4, in a total volume of 0.2 ml. The incubation (for 30 min) and TLC were carried out as above and the ceramide band was counted.

In a further test the test system is neutral ceramidase. Kind of test: Neutral ceramidase of MDCK cell homogenate. The format is biochemical, canine. The protocol: as §1

“And” between values parts separate entries of the source, which are not always exact repeats. Identical values can stand only once. Marks after values point to notes of the source that are not given here.

As to `CCCCCCCCCCCCC/C=C/[C@H](O)[C@@H](CN1CCCC1)NC(=O)CCCCCCCCCCCCCCC` [IV-230A], in test [1], the “Inhibition at 5 μM” value was 19 ± 2.1^g %.
On the same count and under the same terms, the same measure for `CCCCCCCCCCCCC/C=C/[C@H](O)[C@@H](CN1CCOCC1)NC(=O)CCCCCCCCCCCCCCC` [IV-181A]: 12 ± 0.2^g %.
Turning to `CCCCCCCCCC(=O)NC(CN1CCOCC1)C(O)c1ccc(F)cc1` (mixture of isomers) [BML-117], the “% Inhibition at 80 μM” value in test [1] is on record as 35 ± 0.6^b %.
On to `CCCCCCCCCCCCCCCC(=O)NC(CN)C(O)c1ccccc1` (mixture of isomers) [BML-124], for which, in test [1], the “activity against GlcCer synthase, in words” value was “little or no activity” and the “% Inhibition at 80 μM” value is −2 ± 1.6^d %.
Take `CCCCCCCCCCCCCCCC(=O)NC(CN1CCOCC1)C(O)c1ccccc1` (stereo not shown) [PPMP, reference compound]: in test [2], the “effectiveness on growth and survival of 9L cells, in words” value is on record as “relatively weak effectiveness”. Besides, the “Inhibition at 5 μM” value in test [1] (5 µM) is 32 ± 1.8^e % and 32 ± 0.7^f %.
The term IC50 denotes the point on the concentration scale where inhibition reaches its midpoint. With `CCCCCCCCCCCCCCCC(=O)NC(CN1CCCC1)C(O)c1ccc(OC)cc1` (mixture of isomers) [BML-126], the IC50 in test [2] (9L, rounded off to one digit, read-out: Inhibition of tumor cell growth in vitro, IC50) stood at 2 µM. Also, in test [1], the “Inhibition at 5 μM” value is on record as 54 ± 0.3^f % and the “% Inhibition at 80 μM” value is listed as 60 ± 1.8^e %.
On to `CCCCCCCCCCCCCCCC(=O)NC(CN1CCOCC1)C(O)c1ccc(OC)cc1` (mixture of isomers) [BML-125], for which, in test [1], the “Inhibition at 5 μM” value is recorded as 9 ± 3.0^e %.
Consider `CCCCCCCCCCCCCCCC(=O)NC(CN1CCOCC1)C(O)c1ccc(F)cc1` (mixture of isomers) [BML-113], for which, in test [1], the “% Inhibition at 80 μM” value was 60 ± 4.7^a %.
`CCCCCCCCCCCCCCCC(=O)NC(CN1CCCC(N(C)C)C1)C(O)c1ccccc1` (mixture of isomers) [BML-121]: in test [1], the “% Inhibition at 80 μM” value is reported as 11 ± 0.4^c %.
For `CCCCCCCCCC(=O)N[C@H](CN1CCOCC1)[C@H](O)c1ccccc1` [PDMP, 1R-phenyl-2R-decanoylamino-3-morpholino-1-propanol, reference compound], in test [2], the “effectiveness on growth and survival of 9L cells, in words” value is listed as “even weaker effectiveness”. The “Sphingomyelinase pH 7.1, enzyme activity (% of control)” value in test [3] (5 μM) is given as 121 ± 13 % of control; in test [3] (50 μM), 108 ± 8 % of control. Moreover, the “Inhibition at 5 μM” value in test [1] is on record as 16 ± 1.8^f %. Further, the “% Inhibition at 80 μM” value in test [1] is reported as 90 ± 0.8^a %. Moreover, the “Sphingomyelinase pH 4.5, enzyme activity (% of control)” value is reported as 102 ± 3 % of control with Acid SMase (5 μM) and 100 ± 3 % of control in the test with Acid SMase (50 μM). Also, the “Ceramidase pH 4.5, enzyme activity (% of control)” value is recorded as 97 ± 4 % of control in the test with acid ceramidase (5 μM) and 133 ± 13^a % of control with acid ceramidase (50 μM). For the same molecule, the “Ceramide Synthase, enzyme activity (% of control)” value in the test with Ceramide synthase (5 μM) is 99 ± 5 % of control; in the test with Ceramide synthase (50 μM) it was 66 ± 9^a % of control. The “Ceramidase pH 7.4, enzyme activity (% of control)” value with neutral ceramidase (5 μM) is 116 ± 19 % of control; in the test with neutral ceramidase (50 μM), 105 ± 11 % of control.
In the case of `CCCCCCCCCCCCC/C=C/[C@@H](O)[C@H](CO)NC(C)=O` [N-acetylsphingosine, reference compound], the “inhibition of GlcCer synthase by nonionic ceramide-like compounds” value in test [1] is given as “did not inhibit”.
As to `CCCCCCCCCCCCC/C=C/[C@@H](O)[C@@H](CN1CCOCC1)NC(=O)CCCCCCCCCCCCCCC` [IV-206A], in test [1], the “Inhibition at 5 μM” value was 73 ± 1.5^g %.
Turning to `CCCCCCCCCCCCCC(=O)N[C@@H](C)[C@H](O)c1ccccc1` [D-erythro-N-myristoyl-2-amino-1-phenyl-1-propanol, reference compound], in test [1], the “inhibition of GlcCer synthase by nonionic ceramide-like compounds” value is given as “did not inhibit”.
As to `CCCCCCCCCCCCCCCC(=O)NC(CN(CC)CC)C(O)c1ccccc1` (mixture of isomers) [BML-114], in test [1], the “activity against GlcCer synthase, in words” value is given as “little or no activity” and the “% Inhibition at 80 μM” value is 31 ± 2.9^a %.
On to `CCCCCCCCCCCCCCCC(=O)NC(CN(C)CCO)C(O)c1ccccc1` (mixture of isomers) [BML-122], for which, in test [1], the “% Inhibition at 80 μM” value is 58 ± 1.6^d %.
`CCCCCCCCCCCCCCCC(=O)NC(CN1CCCCCC1)C(O)c1ccccc1` (mixture of isomers) [BML-116]: the “% Inhibition at 80 μM” value in test [1] is 28 ± 3.2^a %.
Consider `CCCCCCCCCCCCCCCC(=O)NC(CN1CCN(C)CC1)C(O)c1ccccc1` (mixture of isomers) [BML-120], for which the “% Inhibition at 80 μM” value in test [1] is given as 11 ± 3.0^c %.
